Measured values as given in publication PMC9732521, “Molecular mechanism of GylR-mediated regulation of glycerol metabolism in Streptomyces clavuligerus NRRL 3585” (Frontiers in Microbiology, 2022).

Tests used:
[1] = molecular target: T1, GylR (Streptomyces clavuligerus, UniProt E2PWC0); assay: EMSA, dissociation of GylR from DNA probe BS2; type: binding; conditions: effector (inducer), 50 mM HEPES pH 7.5, 5 mM MgCl2, 25 °C
T1 construct: gene SCLAV_0876; coding region of gylR in pET-30a (NdeI/XhoI), C-terminal His6 tag, E. coli Rosetta (DE3), Ni-NTA; dimer by SEC

[2] = molecular target: GylR (IclR family transcriptional regulator) of Streptomyces clavuligerus NRRL 3585, C-terminal His6-tagged (Streptomyces clavuligerus NRRL 3585); assay: SEC; TSKgel G3000 SWxl column (7.8 x 300 mm) on HPLC, 0.1 M Na2SO4 (pH 6.7), 0.5 ml/min; bovine serum albumin, ovalbumin and AlpJ as molecular weight standards

T1 sequence (E2PWC0 entry or part of it): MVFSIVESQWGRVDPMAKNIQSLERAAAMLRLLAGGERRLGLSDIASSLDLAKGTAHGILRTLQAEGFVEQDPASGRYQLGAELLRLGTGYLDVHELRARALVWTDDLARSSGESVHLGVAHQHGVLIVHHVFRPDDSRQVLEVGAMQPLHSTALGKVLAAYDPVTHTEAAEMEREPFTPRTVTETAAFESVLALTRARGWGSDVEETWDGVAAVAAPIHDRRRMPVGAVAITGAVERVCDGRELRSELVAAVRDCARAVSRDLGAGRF

Molecule | EMSA, dissociation of GylR from DNA probe BS2 [1] | stoichiometry N [2]
O=P(O)(O)OC[C@H](O)CO [G3P, glycerol-3-phosphate] | both G3P and DHAP were capable of inducing the dissociation of GylR from BS2 | –
GylR (IclR family transcriptional regulator) of Streptomyces clavuligerus NRRL 3585, C-terminal His6-tagged (natural protein) | – | 2
O=C(CO)COP(=O)(O)O [DHAP, dihydroxyacetone phosphate] | both G3P and DHAP were capable of inducing the dissociation of GylR from BS2 | –
